pIC50: −log10 of the molar value. Active and inactive are the calls of the source. No cut-off for these calls is given here.
Key:
Macrophage cell line [1] = test: Induction of TNFalpha production in human PBMC-differentiated macrophages after 24 hrs by ELISA; type: cell-based
Macrophage cell line [2] = test: Induction of IL-1beta production in human PBMC-differentiated macrophages after 24 hrs by ELISA; type: cell-based
Streptococcus pyogenes [3] = test: Toxicity in Streptococcus pyogenes ATCC 14289 up to 32 uM measured after 16 hrs; type: organism-based
Staphylococcus aureus [4] = test: Potentiation of methicillin-induced antibacterial activity against Staphylococcus aureus ATCC 33592 assessed as minimum modulatory concentration up to 32 uM measured after 16 hrs in presence of MIC/4 methicillin; type: functional; conditions: ATCC 33592, 16 h, read-out: MEC
Enterococcus faecium [5] = test: Potentiation of tetracycline-induced antibacterial activity against Enterococcus faecium ATCC 700221 assessed as minimum modulatory concentration up to 32 uM measured after 16 hrs in presence of MIC/4 tetracycline; type: functional; conditions: ATCC 700221, 16 h, read-out: MEC
Streptococcus pyogenes [6] = test: Potentiation of methicillin-induced antibacterial activity against Streptococcus pyogenes ATCC 14289 assessed as minimum modulatory concentration up to 32 uM measured after 16 hrs in presence of MIC/4 methicillin; type: functional; conditions: ATCC 14289, 16 h, read-out: MEC
Macrophage cell line [7] = test: Induction of IL-8 production in human PBMC-differentiated macrophages after 24 hrs by ELISA; type: cell-based
Staphylococcus aureus [8] = test: Potentiation of geneticin-induced antibacterial activity against Staphylococcus aureus ATCC 33592 assessed as minimum modulatory concentration up to 32 uM measured after 16 hrs in presence of MIC/4 geneticin; type: functional; conditions: ATCC 33592, 16 h, read-out: MEC
Klebsiella pneumoniae [9] = test: Potentiation of tetracycline-induced antibacterial activity against Klebsiella pneumoniae ATCC 13883 assessed as minimum modulatory concentration up to 32 uM measured after 16 hrs in presence of MIC/4 tetracycline; type: functional; conditions: ATCC 13883, 16 h, read-out: MEC
Escherichia coli [10] = test: Potentiation of geneticin-induced antibacterial activity against Escherichia coli ATCC 43894 assessed as minimum modulatory concentration up to 32 uM measured after 16 hrs in presence of MIC/4 geneticin; type: functional; conditions: ATCC 43894, 16 h, read-out: MEC
Macrophage cell line [11] = test: Induction of prostaglandin production in human PBMC-differentiated macrophages after 24 hrs by ELISA; type: cell-based
Macrophage cell line [12] = test: Cytotoxicity against human PBMC-differentiated macrophages treated for 24 hrs followed by compound washout and measured after 48 hrs by MTT assay; type: cell-based
Escherichia coli [13] = test: Potentiation of tetracycline-induced antibacterial activity against Escherichia coli ATCC 43894 assessed as minimum modulatory concentration up to 32 uM measured after 16 hrs in presence of MIC/4 tetracycline; type: functional; conditions: ATCC 43894, 16 h, read-out: MEC
Staphylococcus aureus [14] = test: Potentiation of ciprofloxacin-induced antibacterial activity against Staphylococcus aureus ATCC 33592 assessed as minimum modulatory concentration up to 32 uM measured after 16 hrs in presence of MIC/4 ciprofloxacin; type: functional; conditions: ATCC 33592, 16 h, read-out: MEC
Klebsiella pneumoniae [15] = test: Potentiation of erythromycin-induced antibacterial activity against Klebsiella pneumoniae ATCC 13883 assessed as minimum modulatory concentration up to 32 uM measured after 16 hrs in presence of MIC/4 erythromycin; type: functional; conditions: ATCC 13883, 16 h, read-out: MEC
Klebsiella pneumoniae [16] = test: Potentiation of geneticin-induced antibacterial activity against Klebsiella pneumoniae ATCC 13883 assessed as minimum modulatory concentration up to 32 uM measured after 16 hrs in presence of MIC/4 geneticin; type: functional; conditions: ATCC 13883, 16 h, read-out: MEC
Staphylococcus aureus [17] = test: Potentiation of tetracycline-induced antibacterial activity against Staphylococcus aureus ATCC 33592 assessed as minimum modulatory concentration up to 32 uM measured after 16 hrs in presence of MIC/4 tetracycline; type: functional; conditions: ATCC 33592, 16 h, read-out: MEC
Pseudomonas aeruginosa [18] = test: Potentiation of erythromycin-induced antibacterial activity against Pseudomonas aeruginosa ATCC BAA-2108 assessed as minimum modulatory concentration up to 32 uM measured after 16 hrs in presence of MIC/4 erythromycin; type: functional; conditions: ATCC BAA-2108, 16 h, read-out: MEC
Klebsiella pneumoniae [19] = test: Potentiation of methicillin-induced antibacterial activity against Klebsiella pneumoniae ATCC 13883 assessed as minimum modulatory concentration up to 32 uM measured after 16 hrs in presence of MIC/4 methicillin; type: functional; conditions: ATCC 13883, 16 h, read-out: MEC
Enterococcus faecium [20] = test: Toxicity in Enterococcus faecium ATCC 700221 up to 32 uM measured after 16 hrs; type: organism-based; conditions: in vitro
Staphylococcus aureus [21] = test: Potentiation of erythromycin-induced antibacterial activity against Staphylococcus aureus ATCC 33592 assessed as minimum modulatory concentration up to 32 uM measured after 16 hrs in presence of MIC/4 erythromycin; type: functional; conditions: ATCC 33592, 16 h, read-out: MEC
Streptococcus pyogenes [22] = test: Potentiation of erythromycin-induced antibacterial activity against Streptococcus pyogenes ATCC 14289 assessed as minimum modulatory concentration up to 32 uM measured after 16 hrs in presence of MIC/4 erythromycin; type: functional; conditions: ATCC 14289, 16 h, read-out: MEC
Enterococcus faecium [23] = test: Potentiation of geneticin-induced antibacterial activity against Enterococcus faecium ATCC 700221 assessed as minimum modulatory concentration up to 32 uM measured after 16 hrs in presence of MIC/4 geneticin; type: functional; conditions: ATCC 700221, 16 h, read-out: MEC
Klebsiella pneumoniae [24] = test: Toxicity in Klebsiella pneumoniae ATCC 13883 up to 32 uM measured after 16 hrs; type: organism-based
Pseudomonas aeruginosa [25] = test: Potentiation of geneticin-induced antibacterial activity against Pseudomonas aeruginosa ATCC BAA-2108 assessed as minimum modulatory concentration up to 32 uM measured after 16 hrs in presence of MIC/4 geneticin; type: functional; conditions: ATCC BAA-2108, 16 h, read-out: MEC
Enterococcus faecium [26] = test: Potentiation of methicillin-induced antibacterial activity against Enterococcus faecium ATCC 700221 assessed as minimum modulatory concentration up to 32 uM measured after 16 hrs in presence of MIC/4 methicillin; type: functional; conditions: ATCC 700221, 16 h, read-out: MEC
Streptococcus pyogenes [27] = test: Potentiation of geneticin-induced antibacterial activity against Streptococcus pyogenes ATCC 14289 assessed as minimum modulatory concentration up to 32 uM measured after 16 hrs in presence of MIC/4 geneticin; type: functional; conditions: ATCC 14289, 16 h, read-out: MEC
Staphylococcus aureus [28] = test: Toxicity in Staphylococcus aureus ATCC 33592 up to 32 uM measured after 16 hrs; type: organism-based
Klebsiella pneumoniae [29] = test: Potentiation of ciprofloxacin-induced antibacterial activity against Klebsiella pneumoniae ATCC 13883 assessed as minimum modulatory concentration up to 32 uM measured after 16 hrs in presence of MIC/4 ciprofloxacin; type: functional; conditions: ATCC 13883, 16 h, read-out: MEC
Escherichia coli [30] = test: Toxicity in Escherichia coli ATCC 43894 up to 32 uM measured after 16 hrs; type: organism-based
Escherichia coli [31] = test: Potentiation of erythromycin-induced antibacterial activity against Escherichia coli ATCC 43894 assessed as minimum modulatory concentration up to 32 uM measured after 16 hrs in presence of MIC/4 erythromycin; type: functional; conditions: ATCC 43894, 16 h, read-out: MEC
Enterococcus faecium [32] = test: Potentiation of erythromycin-induced antibacterial activity against Enterococcus faecium ATCC 700221 assessed as minimum modulatory concentration up to 32 uM measured after 16 hrs in presence of MIC/4 erythromycin; type: functional; conditions: ATCC 700221, 16 h, read-out: MEC
Macrophage cell line [33] = test: Antiinflammatory activity in human PBMC-differentiated macrophages assessed as inhibition of LPS-induced prostaglandin production at 0.01 to 10 uM measured after 24 hrs by ELISA; type: functional, cell-based

SMILES	Activity (Macrophage cell line [1])	Activity (Macrophage cell line [2])	Activity (Streptococcus pyogenes [3])	minimal effective concentration (Staphylococcus aureus [4])	minimal effective concentration (Enterococcus faecium [5])	minimal effective concentration (Streptococcus pyogenes [6])	Activity (Macrophage cell line [7])	minimal effective concentration (Staphylococcus aureus [8])	minimal effective concentration (Klebsiella pneumoniae [9])	minimal effective concentration (Escherichia coli [10])	Activity (Macrophage cell line [11])	pIC50 (Macrophage cell line [12])	minimal effective concentration (Escherichia coli [13])	minimal effective concentration (Staphylococcus aureus [14])	minimal effective concentration (Klebsiella pneumoniae [15])	minimal effective concentration (Klebsiella pneumoniae [16])	minimal effective concentration (Staphylococcus aureus [17])	minimal effective concentration (Pseudomonas aeruginosa [18])	minimal effective concentration (Klebsiella pneumoniae [19])	Activity (Enterococcus faecium [20])	other results
O=C(O)c1cc(-c2ccc(F)cc2F)ncc1O	Non-Toxic	Non-Toxic	Non-Toxic	0.5 µM	4 µM	2 µM	Non-Toxic	2 µM	> 32 µM	> 32 µM	Non-Toxic	4.01	> 32 µM	16 µM	> 32 µM	> 32 µM	2 µM	4 µM	> 32 µM	Non-Toxic	minimal effective concentration (Staphylococcus aureus [21]): 4 µM; minimal effective concentration (Streptococcus pyogenes [22]): 4 µM; minimal effective concentration (Enterococcus faecium [23]): 4 µM; Activity (Klebsiella pneumoniae [24]): Non-Toxic; minimal effective concentration (Pseudomonas aeruginosa [25]): > 32 µM; minimal effective concentration (Enterococcus faecium [26]): 0.25 µM; minimal effective concentration (Streptococcus pyogenes [27]): 8 µM; Activity (Staphylococcus aureus [28]): Non-Toxic; minimal effective concentration (Klebsiella pneumoniae [29]): > 32 µM; Activity (Escherichia coli [30]): Non-Toxic; minimal effective concentration (Escherichia coli [31]): > 32 µM; minimal effective concentration (Enterococcus faecium [32]): 4 µM
O=C(O)c1ccnc(-c2ccccc2)c1O	Non-Toxic	Non-Toxic	Non-Toxic	0.25 µM	2 µM	0.5 µM	Non-Toxic	0.5 µM	> 32 µM	> 32 µM	Non-Toxic	< 4.00	> 32 µM	16 µM	> 32 µM	> 32 µM	2 µM	4 µM	> 32 µM	Non-Toxic	inhibition (Macrophage cell line [33]): inactive; minimal effective concentration (Staphylococcus aureus [21]): 0.25 µM; minimal effective concentration (Streptococcus pyogenes [22]): 2 µM; minimal effective concentration (Enterococcus faecium [23]): 4 µM; Activity (Klebsiella pneumoniae [24]): Non-Toxic; minimal effective concentration (Pseudomonas aeruginosa [25]): > 32 µM; minimal effective concentration (Enterococcus faecium [26]): 1 µM; minimal effective concentration (Streptococcus pyogenes [27]): 2 µM; Activity (Staphylococcus aureus [28]): Non-Toxic; minimal effective concentration (Klebsiella pneumoniae [29]): > 32 µM; Activity (Escherichia coli [30]): Non-Toxic; minimal effective concentration (Escherichia coli [31]): > 32 µM; minimal effective concentration (Enterococcus faecium [32]): 4 µM
O=C(O)c1cc(O)cnc1-c1ccccc1	Non-Toxic	Non-Toxic	Non-Toxic	8 µM	4 µM	1 µM	Non-Toxic	16 µM	> 32 µM	> 32 µM	Non-Toxic	4.06	> 32 µM	> 32 µM	> 32 µM	> 32 µM	1 µM	8 µM	> 32 µM	Non-Toxic	inhibition (Macrophage cell line [33]): inactive; minimal effective concentration (Staphylococcus aureus [21]): 4 µM; minimal effective concentration (Streptococcus pyogenes [22]): 4 µM; minimal effective concentration (Enterococcus faecium [23]): 8 µM; Activity (Klebsiella pneumoniae [24]): Non-Toxic; minimal effective concentration (Pseudomonas aeruginosa [25]): > 32 µM; minimal effective concentration (Enterococcus faecium [26]): 2 µM; minimal effective concentration (Streptococcus pyogenes [27]): 2 µM; Activity (Staphylococcus aureus [28]): Non-Toxic; minimal effective concentration (Klebsiella pneumoniae [29]): > 32 µM; Activity (Escherichia coli [30]): Non-Toxic; minimal effective concentration (Escherichia coli [31]): > 32 µM; minimal effective concentration (Enterococcus faecium [32]): 2 µM
